One assay deals with α4β1 integrin (Homo sapiens (Human), UniProt P05556+P13612). Description: Integrin Adhesion Assay: Protocol 2 (VCAM-coated plate, Jurkat cells, CellTiter GLO readout). It counts as cell-based. The following applies: determined by at least one of the assays described (protocol not specified). A digest of the protocol:
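Jurkat cells (2×10^6 per mL) adhered to VCAM-coated (0.1 ug/well), BSA-blocked wells with compound (1% DMSO) for 1 h at 37° C in 10 mM HEPES, 150 mM NaCl, 1 mM MnCl2, 0.1 mM CaCl2. After four washes, bound cells were quantified by CellTiter-Glo luminescence. Percent inhibition versus DMSO and control-compound wells was fitted to a 4-parameter curve.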
A general note: Cellular ATP, detected with luciferase, serves as a proxy for viable cell number.

The target of another assay is α4β7 integrin (Homo sapiens (Human), UniProt P13612+P26010). The assay is described as follows: Integrin Adhesion Assay: Protocol 1 (MAdCAM-coated plate, RPMI-8866 cells, CellTiter GLO readout). Type of assay: cell-based. The following applies: integrin adhesion assay; determined by at least one of the assays described (protocol not specified). Summed up:
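RPMI-8866 cells (2×10^6 per mL) added with compounds (1% DMSO) to MAdCAM-coated wells blocked in HEPES/NaCl buffer with 1 mM MnCl2, 0.1 mM CaCl2, 1% BSA; 1 h at 37° C, 5% CO2. After four washes, bound cells read by CellTiter GLO luminescence; % inhibition vs DMSO and control wells, 4-parameter fit.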

Molecules are shown by their SMILES.

Experimental findings from patent publication US20250313535A1, “ALPHA 4 BETA 7 INTEGRIN MODULATORS AND USES THEREOF” (DICE MOLECULES SV, INC., priority 2022, published 2025) are described below.

Chain of α4β7 integrin (P13612 34-1032): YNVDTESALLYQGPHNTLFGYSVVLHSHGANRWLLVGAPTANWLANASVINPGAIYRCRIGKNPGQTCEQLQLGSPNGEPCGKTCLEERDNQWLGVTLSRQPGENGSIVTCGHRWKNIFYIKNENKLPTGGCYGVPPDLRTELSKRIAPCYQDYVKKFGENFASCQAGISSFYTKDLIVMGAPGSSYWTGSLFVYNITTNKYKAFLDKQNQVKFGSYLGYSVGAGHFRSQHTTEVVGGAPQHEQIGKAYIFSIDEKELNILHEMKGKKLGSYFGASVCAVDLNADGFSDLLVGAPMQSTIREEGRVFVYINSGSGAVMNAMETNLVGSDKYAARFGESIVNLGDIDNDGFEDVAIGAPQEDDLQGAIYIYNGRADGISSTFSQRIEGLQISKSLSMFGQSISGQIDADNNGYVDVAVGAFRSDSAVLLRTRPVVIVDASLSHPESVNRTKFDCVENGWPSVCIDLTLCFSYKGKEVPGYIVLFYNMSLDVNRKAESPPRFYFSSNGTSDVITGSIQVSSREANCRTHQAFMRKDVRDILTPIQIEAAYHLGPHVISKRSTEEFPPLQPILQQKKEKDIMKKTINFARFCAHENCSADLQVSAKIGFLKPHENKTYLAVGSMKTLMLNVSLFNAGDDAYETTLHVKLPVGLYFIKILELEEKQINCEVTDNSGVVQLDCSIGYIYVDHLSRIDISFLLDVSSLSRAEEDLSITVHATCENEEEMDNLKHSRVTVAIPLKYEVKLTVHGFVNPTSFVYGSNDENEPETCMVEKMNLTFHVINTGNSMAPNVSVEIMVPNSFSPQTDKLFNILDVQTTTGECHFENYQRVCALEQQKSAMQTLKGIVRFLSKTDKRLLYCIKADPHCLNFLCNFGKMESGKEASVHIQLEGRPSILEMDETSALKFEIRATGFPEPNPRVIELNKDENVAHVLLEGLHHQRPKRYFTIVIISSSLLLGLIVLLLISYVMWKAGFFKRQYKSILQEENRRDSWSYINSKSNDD
Chain of α4β7 integrin (P26010 20-798): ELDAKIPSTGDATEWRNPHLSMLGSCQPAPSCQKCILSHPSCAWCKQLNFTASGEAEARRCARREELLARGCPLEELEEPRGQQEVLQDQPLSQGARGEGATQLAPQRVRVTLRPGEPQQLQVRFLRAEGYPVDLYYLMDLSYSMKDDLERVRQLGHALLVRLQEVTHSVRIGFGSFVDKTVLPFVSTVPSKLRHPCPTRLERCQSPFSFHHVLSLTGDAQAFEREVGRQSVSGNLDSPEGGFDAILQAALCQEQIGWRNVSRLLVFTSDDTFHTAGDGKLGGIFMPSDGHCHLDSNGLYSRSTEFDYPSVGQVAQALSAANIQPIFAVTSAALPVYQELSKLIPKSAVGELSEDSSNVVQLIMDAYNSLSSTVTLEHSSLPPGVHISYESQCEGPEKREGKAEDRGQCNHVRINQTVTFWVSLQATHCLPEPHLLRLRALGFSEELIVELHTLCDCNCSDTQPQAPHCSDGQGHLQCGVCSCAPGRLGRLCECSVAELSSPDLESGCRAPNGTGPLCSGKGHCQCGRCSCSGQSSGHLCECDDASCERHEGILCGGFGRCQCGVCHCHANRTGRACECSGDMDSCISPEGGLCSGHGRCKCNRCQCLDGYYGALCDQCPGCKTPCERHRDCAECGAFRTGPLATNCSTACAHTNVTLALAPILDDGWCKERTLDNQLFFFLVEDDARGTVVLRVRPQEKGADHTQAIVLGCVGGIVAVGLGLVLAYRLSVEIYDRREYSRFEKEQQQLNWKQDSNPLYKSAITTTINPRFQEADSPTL
Chain of α4β1 integrin (P13612 34-1032): as the sequence (P13612 34-1032) above
Chain of α4β1 integrin (P05556 21-798): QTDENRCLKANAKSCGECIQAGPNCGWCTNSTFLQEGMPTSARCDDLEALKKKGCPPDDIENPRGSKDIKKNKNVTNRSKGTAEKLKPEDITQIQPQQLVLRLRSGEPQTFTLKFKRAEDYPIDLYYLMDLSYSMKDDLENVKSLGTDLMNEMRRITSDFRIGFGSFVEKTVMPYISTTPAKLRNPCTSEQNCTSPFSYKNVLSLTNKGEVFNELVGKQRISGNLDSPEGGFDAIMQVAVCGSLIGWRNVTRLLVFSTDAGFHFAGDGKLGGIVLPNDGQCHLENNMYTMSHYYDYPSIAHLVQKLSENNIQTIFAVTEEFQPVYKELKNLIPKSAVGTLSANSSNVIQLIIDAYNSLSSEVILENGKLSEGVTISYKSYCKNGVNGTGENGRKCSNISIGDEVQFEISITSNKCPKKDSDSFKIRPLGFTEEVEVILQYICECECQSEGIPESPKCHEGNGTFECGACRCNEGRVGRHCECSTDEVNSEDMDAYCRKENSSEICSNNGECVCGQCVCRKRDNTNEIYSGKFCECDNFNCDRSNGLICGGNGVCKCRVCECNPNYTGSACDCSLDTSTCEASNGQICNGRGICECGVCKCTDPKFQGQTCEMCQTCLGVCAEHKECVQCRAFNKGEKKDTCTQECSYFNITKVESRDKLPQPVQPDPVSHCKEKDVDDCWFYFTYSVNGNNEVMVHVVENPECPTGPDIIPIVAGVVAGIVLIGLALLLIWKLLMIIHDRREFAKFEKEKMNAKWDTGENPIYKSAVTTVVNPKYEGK

With `CCCS(=O)(=O)Nc1ccc(F)c(C(=O)N[C@@H](Cc2cccc3c(-n4c(=O)ccn(C)c4=O)cccc23)C(=O)O)c1F` [Compound 132], the results for the IC50 at α4β1 integrin and against α4β7 integrin were 100 to 1000 nM and < 10 nM, respectively.
On the same counts, the results for `Cn1ccc(=O)n(-c2cccc3c(C[C@H](NC(=O)c4c(F)cc5ncccc5c4F)C(=O)O)cccc23)c1=O` [Compound 133] are > 1000 nM and < 10 nM.
On the same counts, the results for `Cn1cc(CCO)c(=O)n(-c2cccc3c(C[C@H](NC(=O)c4c(F)cccc4F)C(=O)O)cccc23)c1=O` [Compound 137] are > 1000 nM and 10 to 100 nM.
`COc1ccc(F)c(C(=O)N[C@@H](Cc2cccc3c(-n4c(=O)ccn(C)c4=O)cccc23)C(=O)O)c1F` [Compound 138]: the concentration for half-maximal inhibition (IC50) at α4β1 integrin is > 1000 nM; against α4β7 integrin it was 10 to 100 nM.
On the same counts, the results for `CCc1ccc(F)c(C(=O)N[C@@H](Cc2cccc3c(-n4c(=O)ccn(C)c4=O)cccc23)C(=O)O)c1F` [Compound 139] are 100 to 1000 nM and 10 to 100 nM.
With `O=C(N[C@@H](Cc1cccc2c(-c3nccc4ccncc34)cccc12)C(=O)O)c1c(F)cc(N2CCOC[C@H]2CC(F)F)cc1F` [Compound 140], the IC50 against α4β1 integrin is > 1000 nM; against α4β7 integrin, 100 to 1000 nM.
Turning to `C/C=C/c1cn(C)c(=O)n(-c2cccc3c(C[C@H](NC(=O)c4c(F)cccc4F)C(=O)O)cccc23)c1=O` [Compound 141], the 50% inhibitory concentration (IC50) at α4β1 integrin was > 1000 nM; against α4β7 integrin, 10 to 100 nM.
On the same counts, the results for `Cn1ccc(C(F)(F)F)c(-c2cccc3c(C[C@H](NC(=O)c4c(F)cc(N5CCOC[C@@H]5C(F)(F)F)cc4F)C(=O)O)cccc23)c1=O` [Compound 142] are > 1000 nM and 10 to 100 nM.
Turning to `Cn1ccc(C(F)(F)F)c(-c2cccc3c(C[C@H](NC(=O)c4c(F)cc(N5CCOC[C@@H]5C(F)(F)F)cc4CN4CCOCC4)C(=O)O)cccc23)c1=O` [Compound 143], the IC50 on α4β1 integrin is 100 to 1000 nM; against α4β7 integrin it was < 10 nM.
On the same counts, the results for `Cn1ccc(=O)n(-c2cccc3c(C[C@H](NC(=O)c4c(F)cc5cn(CC(F)(F)F)nc5c4F)C(=O)O)cccc23)c1=O` [Compound 144] are 100 to 1000 nM and 10 to 100 nM.
Taken in the same sequence, the figures for `O=C(N[C@@H](Cc1cccc2c(-c3nccc4ccncc34)cccc12)C(=O)O)c1c(F)cc(N2CCOC[C@H]2CC(F)F)cc1CN1CCOCC1` [Compound 146] were > 1000 nM and < 10 nM.
Taken in the same sequence, the figures for `O=C(N[C@@H](Cc1cccc2c(-c3cccc4ccncc34)cccc12)C(=O)O)c1c(F)cc(N2CCOC[C@@H]2C(F)(F)F)cc1CN1CCCC1` [Compound 148] were > 1000 nM and < 10 nM.
In the case of `O=C(N[C@@H](Cc1cccc2c(-c3cccc4ccncc34)cccc12)C(=O)O)c1c(F)cc(N2CCOC[C@@H]2C(F)(F)F)cc1CN1CCOCC1` [Compound 149], the IC50 against α4β1 integrin was > 1000 nM; at α4β7 integrin it was 10 to 100 nM.
Taken in the same sequence, the figures for `O=C(N[C@@H](Cc1cccc2c(-c3cccc4ccncc34)cccc12)C(=O)O)c1c(F)cc(NCC(F)(F)F)cc1CN1CCCC1` [Compound 150] were > 1000 nM and < 10 nM.
Take `O=C(N[C@@H](Cc1cccc2c(-c3cccc4ccncc34)cccc12)C(=O)O)c1c(F)cc(N(CC(F)(F)F)CC(F)(F)F)cc1CN1CCCC1` [Compound 151]: the IC50 is > 1000 nM against α4β1 integrin and < 10 nM at α4β7 integrin.
On the same counts, the results for `CCC1(C(=O)N[C@@H](Cc2cccc3c(-n4c(=O)ccn(C)c4=O)cccc23)C(=O)O)CCN(CC(F)(F)F)CC1` [Compound 152] are 100 to 1000 nM and 10 to 100 nM.
Taken in the same sequence, the figures for `CC(C)C1(C(=O)N[C@@H](Cc2cccc3c(-n4c(=O)ccn(C)c4=O)cccc23)C(=O)O)CCN(CC(F)(F)F)CC1` [Compound 153] were 100 to 1000 nM and 10 to 100 nM.
Taken in the same sequence, the figures for `Cn1ccc(=O)n(-c2cccc3c(C[C@H](NC(=O)[C@H]4C[C@H]5CC[C@@H](C4)N5CC(F)(F)F)C(=O)O)cccc23)c1=O` [Compound 154] were > 1000 nM and > 1000 nM.

Usually IC50 stands for the point on the concentration scale where inhibition reaches its midpoint.
